Values quoted from earlier work as cited in US20240423898A1, “LONGEVITY EYE CREAM” (Wellbeam Consumer Health Intermediate, LLC, priority 2023, published 2024).

What was measured:
skin = conditions: topical application
under-eye dark circles = conditions: in vivo

Structure (SMILES) | improvement in lines and wrinkles, pigmentation, elasticity, firmness, and overall reduction in photo-damage (skin) | irritating effect on the skin (skin) | under-eye dark circles (under-eye dark circles)
C=C[C@@](C)(/C=C/c1ccc(O)cc1)CCC=C(C)C [bakuchiol] | significant improvement | no irritating effect on the skin | –
Cn1c(=O)c2c(ncn2C)n(C)c1=O [caffeine] | – | – | can reduce under-eye dark circles
